Measurements as given in PubChem BioAssay (NCI).
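Assay format: 96-well plates, 48-hour exposure. The concentration for 50% growth inhibition is given as GI50. TGI: concentration producing complete growth inhibition.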

Legend:
Assay in all cases: inhibition of tumour cell growth, NCI panel, 48 h
NCI-H460 lung = tested on: NCI-H460 lung
SK-MEL-5 melanoma = tested on: SK-MEL-5 melanoma
HOP-62 NSCLC = tested on: HOP-62 NSCLC
RXF 393 renal = tested on: RXF 393 renal
UACC-257 melanoma = tested on: UACC-257 melanoma
HCT-116 colon = tested on: HCT-116 colon
SK-OV-3 ovarian = tested on: SK-OV-3 ovarian
SF-295 CNS = tested on: SF-295 CNS
SF-539 CNS = tested on: SF-539 CNS
SR leukemia = tested on: SR leukemia

| Structure (SMILES) | GI50 (NCI-H460 lung) [µM] | TGI (NCI-H460 lung) [µM] | GI50 (SK-MEL-5 melanoma) [µM] | TGI (SK-MEL-5 melanoma) [µM] | GI50 (HOP-62 NSCLC) [µM] | TGI (HOP-62 NSCLC) [µM] | GI50 (RXF 393 renal) [nM] | TGI (RXF 393 renal) [µM] | GI50 (UACC-257 melanoma) [µM] | TGI (UACC-257 melanoma) [µM] | GI50 (HCT-116 colon) [µM] | TGI (HCT-116 colon) [µM] | GI50 (SK-OV-3 ovarian) [µM] | TGI (SK-OV-3 ovarian) [µM] | GI50 (SF-295 CNS) [µM] | TGI (SF-295 CNS) [µM] | GI50 (SF-539 CNS) [nM] | TGI (SF-539 CNS) [µM] | TGI (SR leukemia) [µM] | GI50 (SR leukemia) [µM] |
| --- | --- | --- | --- | --- | --- | --- | --- | --- | --- | --- | --- | --- | --- | --- | --- | --- | --- | --- | --- | --- |
| C#CCOc1cccc(Nc2ncnc3c2ncn3C2CCN(C(=O)CCl)C2)c1 (configuration not stated) | 43.2 | > 100 | 17.2 | 34.2 | 33.3 | > 100 | 17100 | 36.6 | 26.3 | 79.2 | 22.7 | 59.8 | > 100 | > 100 | > 100 | > 100 | 17700 | 32.4 |  |  |
| O=C1c2c(O)cccc2C(C(=O)CCCC(=O)C2c3cccc(O)c3C(=O)c3c(O)cccc32)c2cccc(O)c21 |  | 0.661 |  | 0.671 |  | 2.09 |  |  |  | 0.893 |  | 3.79 |  | 1.05 |  | 2.22 |  | 0.675 | 4.64 |  |
| CC(C)(C)n1cc(-c2ccnc(NCCCNS(=O)(=O)c3ccc(Cl)cc3)c2)c(-c2cccc(O)c2)n1 | 1.94 | 3.92 | 1.44 | 2.76 | 1.74 | 3.52 | 1460 | 2.99 | 1.86 | 3.81 | 1.67 | 3.22 | 2.35 | 6.08 | 1.79 | 3.37 | 1650 | 3.14 |  |  |
| CCCCCC/C=C/CCCCCCCc1cccc(O)c1C(=O)O |  | > 100 |  |  |  | > 100 |  |  |  | > 100 |  | > 100 |  | 99.8 |  | > 100 |  | > 100 | > 100 |  |
| CC(=O)Oc1cc(OC(C)=O)c2cc3c(cc2c1OC(C)=O)C(=O)C1(CCCC1)C3=O |  | 33.1 |  |  |  | 42 |  | 31.3 |  |  |  |  |  | 31.4 |  | 29.9 |  |  |  |  |
| Clc1ccc2c(NCCN3CCN(c4ccnc(N5CCCC5)n4)CC3)ccnc2c1 | 3.25 | 10.1 | 1.79 | 3.19 | 3.34 | 16.2 | 1420 | 3.93 | 2.29 | 4.35 | 2.51 | 10.4 | 11.8 | 34.2 | 2.37 | 5.44 | 1730 | 3.67 |  |  |
| Cn1c(=O)c2[nH]cnc2n(CC(=O)O)c1=O |  | > 100 |  | > 100 |  | > 100 |  |  |  |  |  | > 100 |  | > 100 |  |  |  | > 100 | > 100 |  |
| COc1ccc(Cn2c3c(c4c(O)cccc42)C(=O)c2ccccc2-3)cc1 | 12.8 | 36.5 | 7.76 | 20.6 | 4.39 | 14.9 |  |  | 11.7 | 27.2 | 9.16 | 21.5 | 14.9 | 28.1 | 12.6 | 26.2 |  |  | 30.5 | 13.9 |
| O=C(Nn1c2c(sc1=NC1CC1)C(=O)c1ccccc1C2=O)c1cc2ccc1CCc1ccc(cc1)CC2 | 3.35 | 12.2 | 1.43 | 2.76 | 4.28 | 17.2 | 1850 | 4.75 | 1.69 | 3.41 | 1.94 | 6.45 | 7.03 | 21.4 | 3.55 | 12.7 | 1670 | 3.06 |  |  |
| CC(=O)[CH-]C(=O)c1ccccc1.CC(=O)[CH-]C(=O)c1ccccc1.CC12CC3(C)CC(C)(C1)CC([O-])(C2)C3.CC[O-].[Ti+4] | 16.8 | 46 | 30.8 | 64.4 | 22.3 | 53.3 |  |  | 27.9 | 76.1 | 18.8 | 50.6 | 23.1 | > 100 | 33.4 | > 100 | 17500 | 38.5 |  |  |
| O=C(Nc1cc([N+](=O)[O-])cc([N+](=O)[O-])c1)OC1C2CCC1C1OC1C2 (configuration not stated) |  | > 50 |  | > 50 |  | > 50 |  | > 50 |  | > 50 |  | > 50 |  | > 50 |  | > 50 |  | > 50 |  |  |
| C[n+]1ccc2[nH]c3ccccc3c2c1 |  | > 100 |  | > 100 |  | > 100 |  | > 100 |  | > 100 |  | > 100 |  | > 100 |  | > 100 |  | > 100 |  |  |
| CN(/C(=N\O)c1ccccc1)c1ccccc1 |  | > 100 |  |  |  | 58.8 |  |  |  | > 100 |  | > 100 |  |  |  | 43.4 |  | 49.6 | 75.4 |  |
| CCCCCC/C=C\CCCCCCCCCc1c(O)c(OC)cc(O)c1CN(C)C |  | 15.2 |  | 18.6 |  | 28.9 |  |  |  | 29.3 |  | 22 |  | 28.1 |  | 16.2 |  | 22.2 | 4.23 |  |
| N#CNc1nc(C(=O)Nc2ccc(Cl)cc2)cc(-c2ccccc2)n1 |  |  |  | > 100 |  | > 100 |  | > 100 |  | > 100 |  | > 100 |  |  |  | > 100 |  | > 100 |  |  |
| CCN1CCC(O)(c2ccc(Cl)c(Cl)c2)C(C(=O)c2ccc(Cl)c(Cl)c2)C1 (configuration not stated) |  | 43.6 |  | 31.5 |  | 33.9 |  |  |  | 32 |  | 32.4 |  | 32.8 |  | 31.9 |  | 32.1 |  |  |
| CC(=O)[CH-]C(=O)c1ccccc1.CC(=O)[CH-]C(=O)c1ccccc1.CC[O-].O=C1C=C([O-])C(=O)c2ccccc21.[Ti+4] | 71.9 | > 100 | 14 | > 100 | 58.2 | > 100 | > 100000 | > 100 | 8.49 | 86 | 62.5 | > 100 | 70.8 | > 100 | 37.9 | > 100 | > 100000 | > 100 |  |  |
| CCc1ccccc1NC(=O)C1=C(C)NC(C)=C(C(=O)Nc2ccccc2CC)C1c1ccc(NC(C)=O)cc1 |  | > 100 |  | > 100 |  | 92.8 |  | 65 |  | > 100 |  | > 100 |  | > 100 |  | > 100 |  | 68 |  |  |
| COc1ccc(CC(C#N)c2cc(OC)c(OC)c(OC)c2)cc1 (configuration not stated) |  | 21 |  | 2.7 |  | > 100 |  |  |  | > 100 |  | 3.88 |  |  |  | 0.0783 |  | 0.231 | 2.15 |  |
